From patent US20090239836A1, “Multifunctional Ophthalmic Compositions” (priority 2008, published 2009)

Assay: Solubility of compound having Formula V in various media
Type: physicochemical
Description: For example, the solubility of the compound having Formula V in some embodiments of the present composition is compared to that in water in Table 1.

With `Cc1ccc2c(NCC(O)(CC(C)(C)c3cc(F)cc4c3OCC4)C(F)(F)F)cccc2n1` (centres unmarked) [Compound Having Formula V] the solubility (Medium: Water, pH 7) was 0.2 µg/mL, the solubility (aqueous with cosolvent or surfactant or cyclodextrin, Medium: 1% Polysorbate 80) was 12 µg/mL and the solubility (aqueous with cosolvent or surfactant or cyclodextrin, Medium: 10% PEG-400/1% polysorbate 80 (a composition of the present invention)) was 12 µg/mL. For the same molecule, the solubility (aqueous with cosolvent or surfactant or cyclodextrin, Medium: 25% PEG-40/1% polysorbate 80 (a composition of the present invention)) was 18 µg/mL and the solubility (organic solvent or mixture, Medium: PEG-400) was 5.6 µg/mL.
